The target in experiment [1] is human Mu Opioid Receptor (MOR) (Homo sapiens, UniProt P35372). The experiment in a line: biochemical. The format is binding.
For experiment [2], the target named is OTR (Homo sapiens, UniProt P30559). The experiment in a line: EC50 (nM) | OTR. The text has this:
Table printed on a drawing sheet, FIG. 6
The patent's description of the figure: FIG. 6 is a table showing EC50 for OXTR agonistic activity for some of the representative cyclic oligopeptides of the invention.
First copying reader's note: Each value cell holds the EC50 together with its ± error; NA is not defined on the sheet.

Experiment [3] can be described thus: 52° C. warm water tail flick assay, iv injection. The class given is in vivo, CD-1 mice. The following applies: 10 mg/kg iv; for anti-nociception in tail flick assay: 10 second cutoff, male and female CD-1 mice.
A short description of experiment [4]: 52° C. warm water tail flick assay, icv injection. The format is in vivo. The following applies: 10 nmol icv, male and female CD-1 mice. (In hot-plate and tail-flick tests a longer latency is read as antinociception.)
A short description of experiment [5]: Paclitaxel-induced CIPN, Von Frey filaments mechanical threshold, icv injection. The following applies: 10 nmol icv on day 8, 2 mg/kg paclitaxel on days 1, 3, 5, 7. The format is in vivo, CD-1 mice.

This is an account of results in patent US12649765B2 (Arizona Board of Regents on Behalf of the University of …, priority 2020, dated 2026).

“Also recorded” adds a separate entry of the source. Where a SMILES comes first, the peptide text is derived from it. Bridges are numbered along the chain shown (N, C = ends). [ ]: non-standard residue; d: D form. The star is where a group is joined. X1 = OC[C@H]1OC(*)[C@H](O)[C@@H](O)[C@@H]1O; Dap = NC[C@H](N)C(=O)O

Chain of human Mu Opioid Receptor (MOR) (P35372 whole entry): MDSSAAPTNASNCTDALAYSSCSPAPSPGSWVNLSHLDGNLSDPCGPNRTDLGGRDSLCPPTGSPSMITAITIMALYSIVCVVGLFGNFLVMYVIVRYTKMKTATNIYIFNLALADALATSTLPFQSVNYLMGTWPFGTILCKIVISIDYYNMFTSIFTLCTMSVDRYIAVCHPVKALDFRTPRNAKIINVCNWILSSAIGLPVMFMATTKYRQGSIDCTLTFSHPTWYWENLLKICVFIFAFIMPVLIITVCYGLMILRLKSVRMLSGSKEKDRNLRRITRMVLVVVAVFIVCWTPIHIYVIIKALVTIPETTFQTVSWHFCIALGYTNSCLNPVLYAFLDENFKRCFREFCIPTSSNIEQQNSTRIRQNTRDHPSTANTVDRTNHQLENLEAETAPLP
Chain of OTR (P30559 whole entry, looked up): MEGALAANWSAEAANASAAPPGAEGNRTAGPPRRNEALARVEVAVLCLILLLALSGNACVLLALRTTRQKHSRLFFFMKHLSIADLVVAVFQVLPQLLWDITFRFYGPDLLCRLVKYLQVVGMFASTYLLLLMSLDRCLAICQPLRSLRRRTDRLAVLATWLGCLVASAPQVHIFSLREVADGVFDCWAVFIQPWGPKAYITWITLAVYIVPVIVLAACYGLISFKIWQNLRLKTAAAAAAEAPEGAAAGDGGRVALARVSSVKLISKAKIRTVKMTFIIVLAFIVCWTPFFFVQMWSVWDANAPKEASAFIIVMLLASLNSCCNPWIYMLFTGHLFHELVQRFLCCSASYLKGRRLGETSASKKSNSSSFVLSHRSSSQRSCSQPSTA

Turning to `CC[C@H](C)[C@@H]1NC(=O)[C@H](Cc2ccc(O)cc2)NC(=O)[C@@H](N)CNC(=O)C[C@@H](C(=O)N2CCC[C@H]2C(=O)N[C@@H](CC(C)C)C(=O)NCC(N)=O)NC(=O)[C@H](CC(N)=O)NC(=O)[C@H](CCC(N)=O)NC1=O` [2LS118-3, Dap-Tyr-Ile-Gln-Asn-Asp-Pro-Leu-Gly-CONH2 (SEQ ID NO: 7)] (H-[Dap]YIQNDPLG-NH2; lactam 1-6), in experiment [1], the IC50 (usually the midpoint of a concentration-inhibition curve) is more than 2.5 µM and the Ki (commonly a measure of affinity in units of concentration, obtained from inhibition or displacement) is more than 2.5 µM.
With `CC[C@H](C)[C@@H]1NC(=O)[C@H](Cc2ccc(O)cc2)NC(=O)[C@@H](N)CC(=O)NC[C@@H](C(=O)N2CCC[C@H]2C(=O)N[C@@H](CC(C)C)C(=O)NCC(N)=O)NC(=O)[C@H](CC(N)=O)NC(=O)[C@H](CCC(N)=O)NC1=O` [2LS118-1, Asp-Tyr-Ile-Gln-Asn-Dap-Pro-Leu-Gly-CONH2 (SEQ ID NO: 5)] (H-DYIQN[Dap]PLG-NH2; lactam 1-6), in experiment [1], the IC50 is more than 2.5 µM and the inhibition constant Ki is more than 2.5 µM. The response in experiment [2] was half-maximal at 3760 ± 3120 nM (EC50).
Consider `CC[C@H](C)[C@@H]1NC(=O)[C@H](Cc2ccc(O)cc2)NC(=O)[C@@H](N)CSSC[C@@H](C(=O)N2CCC[C@H]2C(=O)N[C@@H](CC(C)C)C(=O)NCC(N)=O)NC(=O)[C@H](CC(N)=O)NC(=O)[C@H](CCC(N)=O)NC1=O` [native OT, Cys-Tyr-Ile-Gln-Asn-Cys-Pro-Leu-Gly-CONH2 (SEQ ID NO: 1), reference compound], for which the “anti-nociception in tail flick assay” value in experiment [3] is “no anti-nociception; also recorded: no efficacy”; in experiment [3] (listed as Native OT), “no effect”; in experiment [4] it was “the same degree and duration of anti-nociceptive activity; also recorded: substantially equivalent anti-nociception”.
In experiment [1], `CC[C@H](C)[C@@H]1NC(=O)[C@H](Cc2ccc(O)cc2)NC(=O)[C@@H](N)CCC(=O)NC[C@@H](C(=O)N2CCC[C@H]2C(=O)N[C@@H](CC(C)C)C(=O)NCC(N)=O)NC(=O)[C@H](CC(N)=O)NC(=O)[C@H](CCC(N)=O)NC1=O` [2LS118-2, Glu-Tyr-Ile-Gln-Asn-Dap-Pro-Leu-Gly-CONH2 (SEQ ID NO: 6)] (H-EYIQN[Dap]PLG-NH2; lactam 1-6) gave an IC50 of more than 2.5 µM and a Ki of more than 2.5 µM. For the same molecule, in experiment [2], the concentration giving a half-maximal response (EC50) (as a rule, the midpoint of the concentration-response curve) was determined as 7040 ± 2960 nM.
As to `CC[C@H](C)[C@@H]1NC(=O)[C@H](Cc2ccc(O)cc2)NC(=O)[C@@H](N)CC(=O)NC[C@@H](C(=O)N2CCC[C@H]2C(=O)N[C@@H](CC(C)C)C(=O)N[C@@H](COC2O[C@H](CO)[C@@H](O)[C@H](O)[C@H]2O)C(N)=O)NC(=O)[C@H](CC(N)=O)NC(=O)[C@H](CCC(N)=O)NC1=O` (stereo partly drawn) [2LS118-4, Asp-Tyr-Ile-Gln-Asn-Dap-Pro-Leu-SerGlc-CONH2 (SEQ ID NO: 8)] (H-DYIQN[Dap]PLS(X1)-NH2; lactam 1-6; N-terminus assumed), the “peak effect in tail flick assay” value in experiment [3] is recorded as “significantly higher peak effect than 2LS118-1”. Further, the “anti-nociception in tail flick assay” value in experiment [3] was “near-maximal efficacy comparable to 10 mg/kg morphine; also recorded: almost half to full maximal efficacy vs. morphine”; in experiment [4], “the same degree and duration of anti-nociceptive activity; also recorded: substantially equivalent anti-nociception”. The “anti-nociception in CIPN model (mechanical threshold)” value in experiment [5] is listed as “high anti-nociceptive efficacy; also recorded: substantially equivalent anti-nociception”.
